Assay results from PubChem BioAssay (NCI).
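Growth conditions: 96-well plates. Treatment: test compound, 48 hours, 5 concentrations. Analysis: linear interpolation between bracketing concentrations; unreached endpoints set to highest concentration. GI50 = concentration required for 50% inhibition of growth. TGI: concentration producing complete growth inhibition.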 *1 amine or outer side, *2 acyl side, *3 side chain or, on linkers, in order; H or OH if unused. Where a SMILES comes first, the peptide text is derived from it. Bridges are numbered along the chain shown (N, C = ends). [ ]: non-standard residue; d: D form. The star is where a group is joined. ξ: configuration not given here. ξOrn(4,5-diOH) = O=C(C(CC(O)C(O)N[*:3])N[*:1])[*:2]; ξhTyr(βξ-OH,γξ-OH) = NC(C(=O)O)C(O)C(O)c1ccc(O)cc1; ξPro(3ξ-OH,4ξ-Me) = CC1CNC(C(=O)O)C1O; X22 = CCCCC/C=C/C/C=C\CCCCCCCC(=O)*; Hyp = O=C(O)[CH]1C[CH](O)CN1

Key:
Test in all cases: DTP human tumour cell line panel, 48 h
[1] = tested on: 786-0 renal
[2] = tested on: A498 renal
[3] = tested on: A549 NSCLC
[4] = tested on: ACHN renal
[5] = tested on: BT-549 breast
[6] = tested on: CCRF-CEM leukemia
[7] = tested on: COLO 205 colon
[8] = tested on: DU-145 prostate
[9] = tested on: EKVX NSCLC
[10] = tested on: HCC-2998 colon
[11] = tested on: HCT-116 colon
[12] = tested on: HCT-15 colon
[13] = tested on: HL-60(TB) leukemia
[14] = tested on: HOP-62 NSCLC
[15] = tested on: HOP-92 NSCLC
[16] = tested on: HS 578T breast
[17] = tested on: HT29 colon
[18] = tested on: IGROV1 ovarian
[19] = tested on: K-562 leukemia
[20] = tested on: KM12 colon
[21] = tested on: LOX IMVI melanoma
[22] = tested on: M14 melanoma
[23] = tested on: MALME-3M melanoma
[24] = tested on: MCF7 breast
[25] = tested on: MDA-MB-231 breast
[26] = tested on: MDA-MB-435
[27] = tested on: MOLT-4 leukemia
[28] = tested on: NCI-H226 lung
[29] = tested on: NCI-H23 lung
[30] = tested on: NCI-H460 lung
[31] = tested on: NCI-H522 lung
[32] = tested on: NCI/ADR-RES ovarian
[33] = tested on: OVCAR-3 ovarian
[34] = tested on: OVCAR-4 ovarian
[35] = tested on: OVCAR-5 ovarian
[36] = tested on: OVCAR-8 ovarian
[37] = tested on: PC-3 prostate
[38] = tested on: RPMI-8226 leukemia
[39] = tested on: RXF 393 renal
[40] = tested on: SF-268 CNS
[41] = tested on: SF-295 CNS
[42] = tested on: SF-539 CNS
[43] = tested on: SK-MEL-2 melanoma
[44] = tested on: SK-MEL-28 melanoma
[45] = tested on: SK-MEL-5 melanoma
[46] = tested on: SK-OV-3 ovarian
[47] = tested on: SN12C renal
[48] = tested on: SNB-19 CNS
[49] = tested on: SNB-75 CNS
[50] = tested on: SR leukemia
[51] = tested on: SW-620 colon
[52] = tested on: TK-10 renal
[53] = tested on: U251 CNS
[54] = tested on: UACC-62 melanoma
[55] = tested on: UO-31 renal
[56] = tested on: UACC-257 melanoma

Work on `COc1ccc([C@@H]2[C@@H](Oc3ccccc3)C(=O)N2c2cc(OC)c(OC)c(OC)c2)cc1F` yielded a GI50 [1] of 198 nM, a TGI [1] greater than 100 µM and a GI50 [2] of 23.8 nM. For the same compound, the TGI [2] was 98.3 nM, the GI50 [3] was 209 nM and the TGI [3] was greater than 100 µM. It also gave a GI50 [4] of 69.9 nM, a TGI [4] greater than 100 µM and a GI50 [5] of 34.2 nM. It also gave a TGI [5] greater than 100 µM, a GI50 [6] of 204 nM and a TGI [6] greater than 100 µM. The GI50 [7] was 235 nM, the TGI [7] was 972 nM and the GI50 [8] was 378 nM. It also gave a TGI [8] greater than 100 µM, a GI50 [9] of 465 nM and a TGI [9] greater than 100 µM. The GI50 [10] was 524 nM, the TGI [10] was greater than 100 µM and the GI50 [11] was 161 nM. The TGI [11] was 2450 nM, the GI50 [12] was 155 nM and the TGI [12] was greater than 100 µM. It also gave a GI50 [13] of 240 nM, a TGI [13] of 609 nM and a GI50 [14] of 81.1 nM. It also gave a TGI [14] greater than 100 µM, a GI50 [15] of 722 nM and a TGI [15] greater than 100 µM. The GI50 [16] was 86.4 nM, the TGI [16] was 77.9 µM and the GI50 [17] was 211 nM. It also gave a TGI [17] of 684 nM, a GI50 [18] of 257 nM and a TGI [18] greater than 100 µM. For the same compound, the GI50 [19] was 41.7 nM, the TGI [19] was greater than 100 µM and the GI50 [20] was 88 nM. It also gave a TGI [20] greater than 100 µM, a GI50 [21] of 91 nM and a TGI [21] greater than 100 µM. It also gave a GI50 [22] of 81.8 nM, a TGI [22] of 1720 nM and a GI50 [23] greater than 100 µM. It also gave a TGI [23] greater than 100 µM, a GI50 [24] of 40.9 nM and a TGI [24] greater than 100 µM. It also gave a GI50 [25] of 298 nM, a TGI [25] greater than 100 µM and a GI50 [26] of 26.4 nM. For the same compound, the TGI [26] was 76 nM, the GI50 [27] was 345 nM and the TGI [27] was greater than 100 µM. The GI50 [28] was 990 nM, the TGI [28] was greater than 100 µM and the GI50 [29] was 700 nM. It also gave a TGI [29] greater than 100 µM, a GI50 [30] of 155 nM and a TGI [30] greater than 100 µM. The GI50 [31] was 27.6 nM, the TGI [31] was 332 nM and the GI50 [32] was 94.9 nM. For the same compound, the TGI [32] was greater than 100 µM, the GI50 [33] was 51.1 nM and the TGI [33] was greater than 100 µM. For the same compound, the GI50 [34] was 2570 nM, the TGI [34] was greater than 100 µM and the GI50 [35] was 421 nM. It also gave a TGI [35] greater than 100 µM, a GI50 [36] of 189 nM and a TGI [36] greater than 100 µM. It also gave a GI50 [37] of 230 nM, a TGI [37] greater than 100 µM and a GI50 [38] of 207 nM. It also gave a TGI [38] of 5.64 µM, a GI50 [39] of 59.3 nM and a TGI [39] greater than 100 µM. For the same compound, the GI50 [40] was 222 nM, the TGI [40] was greater than 100 µM and the GI50 [41] was 78.5 nM. For the same compound, the TGI [41] was greater than 100 µM, the GI50 [42] was 73.5 nM and the TGI [42] was 709 nM. The GI50 [43] was 447 nM, the TGI [43] was greater than 100 µM and the GI50 [44] was 260 nM. The TGI [44] was greater than 100 µM, the GI50 [45] was 50.4 nM and the TGI [45] was 1490 nM. For the same compound, the GI50 [46] was 380 nM, the TGI [46] was greater than 100 µM and the GI50 [47] was 383 nM. The TGI [47] was greater than 100 µM, the GI50 [48] was 175 nM and the TGI [48] was greater than 100 µM. For the same compound, the GI50 [49] was 56.7 nM, the TGI [49] was greater than 100 µM and the GI50 [50] was 77.8 nM. It also gave a TGI [50] greater than 100 µM, a GI50 [51] of 76.9 nM and a TGI [51] greater than 100 µM. For the same compound, the GI50 [52] was 6.52 µM, the TGI [52] was greater than 100 µM and the GI50 [53] was 185 nM. For the same compound, the TGI [53] was greater than 100 µM, the GI50 [54] was 41.9 nM and the TGI [54] was greater than 100 µM. The GI50 [55] was 562 nM and the TGI [55] was greater than 100 µM.
`CCCCC/C=C/C/C=C\CCCCCCCC(=O)NC1CC(O)C(O)NC(=O)C2C(O)C(C)CN2C(=O)C(C(C)O)NC(=O)C(C(O)C(O)c2ccc(O)cc2)NC(=O)C2CC(O)CN2C(=O)C(C(C)O)NC1=O` (stereo not drawn) (X22-[ξOrn(4,5-diOH)]T[Hyp][ξhTyr(βξ-OH,γξ-OH)]T[ξPro(3ξ-OH,4ξ-Me)]; lactam 1-C; configuration not given here) gave a TGI [5] greater than 100 µM, a TGI [15] greater than 100 µM and a TGI [29] greater than 100 µM. For the same compound, the TGI [56] was greater than 100 µM.
